Laboratory results taken from patent US4613695A, “N-nitroso compounds and compositions containing such compounds” (Aktiebolaget Leo, priority 1982, dated 1986).
Read-outs that look alike come from different tables or passages of the source.

What was measured:
[1] = tested on: Walker carcinosarcoma 256; assay: Walker carcinosarcoma 256 tumour growth inhibition (single p.o. dose); format: in vivo, Female Sprague Dawley rats; details: for ED50: Rattus norvegicus, dose that causes a 50 percent reduction of tumour size, p.o. once, read-out: ED50
Excerpt: (§1) A therapeutic index is an indication of the therapeutic usefulness of a compound, and such an index may be defined in various ways. One type of therapeutic index commonly used is the ratio LD50/ED50, wherein LD50 is the dose that causes a 50 percent lethality, and ED50 is the dose that causes a 50 percent reduction of tumour size. Another type of therapeutic index, useful in evaluation of increasing survival time, is the ratio between maximum and minimum effective dose. Both these types of therapeutic indexes are used and given in the experimental results below.
(§2) The manner of administration of the compounds is by the oral (p. o.) route in each case.
(§3) Experimental animals: Female Sprague Dawley rats
(§4) Tumour implants: Tumour pieces with 2-3 mm diameter, implanted subcutaneously
(§5) Therapy: The compound is administered p. o. once on the day after the implantation
Termination: The animals are killed on the 9th day after implantation
(§6) Evaluation: Weight of tumour is determined in test animals and compared with those of control animals. For each compound the LD50 and ED50 dose (as defined above) are determined. The therapeutic index, T. I., (LD50/ED50) is calculated.

in vivo = details: rat, po
Excerpt: as §1, §2, §3, §4, §5, §6

Lymphatic leukemia L1210 = Lymphatic leukemia L1210 survival test (survival time increase, long term survival, cure potential); format: in vivo, Female BDF1 mice; details: for minimal effective dose: Mus musculus, L1210, po; for minimal effective dose / Maximum effective dose (survival time increase) / Dose or dose range for cure: p.o. once; for T.I.s (long term survival; max.effect.dose/min.effect.dose): long term survival T·100/To >20%; for T.I.s = max.effect.dose/min.effect.dose: survival time increase, t·100/c ≥125%; for Dose or dose range for cure: ≥90% long term survivors on day 60
Procedure: The experimental design and interpretation of the results are in accordance with the standards set by the CCNSC (see reference (16)) and by the DR&D (see reference (17)).
Experimental animals: Female BDF1 mice
Tumour implants: 10^5 tumour cells implanted intraperitoneally (i. p.)
Therapy: The compounds were administered p. o. once on the day following the implantation.
Termination: The animals were killed on the 60th day after the implantation. Living animals on the 60th day are termed long term survivors.
(a) Evaluation of therapeutic dose range for survival time increase: Survival times at various dose levels are determined, and the survival time of the test animals (t) is expressed as the percentage of that of the control animals (c):
The maximum effective dose and the minimum effective dose required to achieve t·100/c≥125% are determined, and a therapeutic index as defined below is calculated:
T. I.s =max.effect.dose/min.effect.dose.
(b) Evaluation of therapeutic dose range for long term survival: Long time survival is determined at various dose levels and is expressed as surviving test animals on day 60 (T) as the percentage of that of the total number of test animals (To):
The maximum effective dose and the minimum effective dose to achieve long term survival T·100/To >20% are determined and a therapeutic index, T. I.1 s is calculated:
T. I.1s =max.effect.dose/min.effect.dose.
(c) Evaluation of cure potential: The normal survival time for test animals receiving no therapeutic treatment is 9-11 days. Surviving test animals on the 60th day after implantation showing no sign of tumour presence are regarded as cured animals. Long term survival is determined as under (b) above, and the effective dose or dose range to achieve a long term survival T·100/To ≥90% is determined as an evaluation of the cure potential.

[2] = cited from earlier work
[3] = therapeutic index LD50/ED50, p.o.
[4] = 1440 h, >20% long term survivors on day 60, read-out: Minimum effective dose (long term survival)
[5] = median survival time percent of control ≥ 125%, read-out: Minimum effective dose (survival time increase)
[6] = median survival time percent of control ≥ 125%

| Structure (SMILES) | ED50 ([1]; po) | T.I. LD50/ED50 [1, 3] | LD50 (in vivo) | minimal effective dose (Lymphatic leukemia L1210; [4]) | minimal effective dose (Lymphatic leukemia L1210; [5]) | T.I.s (long term survival; max.effect.dose/min.effect.dose) (Lymphatic leukemia L1210) | Maximum effective dose (survival time increase) (Lymphatic leukemia L1210; [6]) | T.I.s = max.effect.dose/min.effect.dose (Lymphatic leukemia L1210) | Dose or dose range for cure (Lymphatic leukemia L1210) | T.I. LD50/ED50 ([1]; rat, in vivo, po) | other types of toxicities ([2]; references (6, 7)) | bone marrow toxicity ([2]; under clinical evaluation, reference (5)) |
| --- | --- | --- | --- | --- | --- | --- | --- | --- | --- | --- | --- | --- |
| CCN(CC)S(=O)(=O)CCNC(=O)N(CCCl)N=O [1:2, 1-(2-chloroethyl)-3-(2-/diethylaminosulfonyl/ethyl)-1-nitrosourea] | 0.4 mg/kg | 150 | 60 mg/kg | 63 mg/kg | 16 mg/kg | 2 | 125 mg/kg | 8 |  |  |  |  |
| NS(=O)(=O)CCNC(=O)N(CCCl)N=O [1:3, 3-(2-/aminosulfonyl/ethyl)-1-(2-chloroethyl)-1-nitrosourea] | 0.2 mg/kg | 200 | 40 mg/kg | 16 mg/kg |  | 2 |  |  |  |  |  |  |
| O=NN(CCCl)C(=O)NCCS(=O)(=O)N1CCCCC1 [1:4, 1-(2-chloroethyl)-1-nitroso-3-(2-/1-piperidinosulfonyl/ethyl)-urea] | 1 mg/kg | 125 | 125 mg/kg | 31 mg/kg | 8 mg/kg | 4 | 125 mg/kg | 16 | 125 mg/kg |  |  |  |
| CNS(=O)(=O)CCNC(=O)N(CCCl)N=O [1:5, 1-(2-chloroethyl)-3-(2-/methylaminosulfonyl/ethyl)-1-nitrosourea] | 0.25 mg/kg | 160 | 40 mg/kg |  | 8 mg/kg |  | 63 mg/kg | 8 | 31 mg/kg |  |  |  |
| CCCN(CCC)S(=O)(=O)CCNC(=O)N(CCCl)N=O [1:6, 1-(2-chloroethyl)-3-(2-/dipropylaminosulfonyl/ethyl)-1-nitrosourea] | 2 mg/kg | 125 | 250 mg/kg |  | 31 mg/kg |  | 250 mg/kg | 8 | 125 mg/kg |  |  |  |
| O=NN(CCCl)C(=O)NCCS(=O)(=O)NCc1ccccc1 [1:7, 3-(2-/benzylaminosulfonyl/ethyl)-1-(2-chloroethyl)-1-nitrosourea] | 2 mg/kg | 125 | 250 mg/kg | 125 mg/kg |  | 2 |  |  |  |  |  |  |
| O=NN(CCCl)C(=O)NCCS(=O)(=O)NCCO [1:14, 1-(2-chloroethyl)-3-(2-/2-hydroxyethylaminosulfonyl/ethyl)-1-nitrosourea] | 0.6 mg/kg | 150 | 90 mg/kg | 31 mg/kg | 16 mg/kg | 4 | 125 mg/kg | 8 | 63 mg/kg |  |  |  |
| CN(CCO)S(=O)(=O)CCNC(=O)N(CCCl)N=O [1:15, 1-(2-chloroethyl)-3-(2-/N-2-hydroxyethyl-N-methyl-aminosulfonyl/ethyl)-1-nitrosourea] | 0.6 mg/kg |  | 90 mg/kg | 31 mg/kg | 16 mg/kg | 4 | 125 mg/kg | 8 | 63 mg/kg | 150 |  |  |
| CN(C)S(=O)(=O)CCCCCNC(=O)N(CCCl)N=O [1:19, 1-(2-chloroethyl)-3-(5-/dimethylaminosulfonyl/pentyl)-1-nitrosourea] | 1 mg/kg | 250 | 250 mg/kg | 63 mg/kg |  | 2 |  |  | 125 mg/kg |  |  |  |
| CN(C)S(=O)(=O)CCCCNC(=O)N(CCCl)N=O [1:24, 1-(2-chloroethyl)-3-(4-/dimethylaminosulfonyl/butyl)-1-nitrosourea] | 2 mg/kg |  | 250 mg/kg | 63 mg/kg | 31 mg/kg | 4 | 250 mg/kg | 8 | 125 mg/kg | 125 |  |  |
| CN(C1CCCCC1)S(=O)(=O)CCNC(=O)N(CCCl)N=O [1:28, 1-(2-chloroethyl)-3-(2-/N-cyclohexyl-N-methylaminosulfonyl/ethyl)-1-nitrosourea] | 2.5 mg/kg | > 100 | > 250 mg/kg | 125 mg/kg | 31 mg/kg | 2 | 250 mg/kg | 8 | 125 mg/kg |  |  |  |
| O=NN(CCCl)C(=O)NCCCl [BCNU, 1,2-bis-(2-chloroethyl)-nitrosourea, reference compound] | 1 mg/kg | 50 | 50 mg/kg | 63 mg/kg | 16 mg/kg | 1 | 63 mg/kg | 4 | none |  |  |  |
| O=NN(CCCl)C(=O)N[C@H]1C(O)O[C@H](CO)[C@@H](O)[C@@H]1O (stereo partly drawn) [Chlorozotocin, 2-/3-(2-chloroethyl)-3-nitrosoureido/-D-glucopyranose] |  |  |  |  |  |  |  |  |  |  | still evident, e.g. liver and lung toxicity | decreased bone marrow toxicity |
